Source: ChEMBL document CHEMBL4665659, “Utilizing comprehensive and mini-kinome panels to optimize the selectivity of quinoline inhibitors for cyclin G associated kinase (GAK)” (Bioorg Med Chem Lett, 2019)
One block for each molecule: values may come before it.

Assays:
[1] = biological target: T1, Cyclin-G-associated kinase (Homo sapiens, UniProt O14976); assay: Binding affinity to human wild type partial length GAK (G13 to Y338 residues) expressed in bacterial expression system by KinomeScan method
T1 sequence (O14976 whole entry): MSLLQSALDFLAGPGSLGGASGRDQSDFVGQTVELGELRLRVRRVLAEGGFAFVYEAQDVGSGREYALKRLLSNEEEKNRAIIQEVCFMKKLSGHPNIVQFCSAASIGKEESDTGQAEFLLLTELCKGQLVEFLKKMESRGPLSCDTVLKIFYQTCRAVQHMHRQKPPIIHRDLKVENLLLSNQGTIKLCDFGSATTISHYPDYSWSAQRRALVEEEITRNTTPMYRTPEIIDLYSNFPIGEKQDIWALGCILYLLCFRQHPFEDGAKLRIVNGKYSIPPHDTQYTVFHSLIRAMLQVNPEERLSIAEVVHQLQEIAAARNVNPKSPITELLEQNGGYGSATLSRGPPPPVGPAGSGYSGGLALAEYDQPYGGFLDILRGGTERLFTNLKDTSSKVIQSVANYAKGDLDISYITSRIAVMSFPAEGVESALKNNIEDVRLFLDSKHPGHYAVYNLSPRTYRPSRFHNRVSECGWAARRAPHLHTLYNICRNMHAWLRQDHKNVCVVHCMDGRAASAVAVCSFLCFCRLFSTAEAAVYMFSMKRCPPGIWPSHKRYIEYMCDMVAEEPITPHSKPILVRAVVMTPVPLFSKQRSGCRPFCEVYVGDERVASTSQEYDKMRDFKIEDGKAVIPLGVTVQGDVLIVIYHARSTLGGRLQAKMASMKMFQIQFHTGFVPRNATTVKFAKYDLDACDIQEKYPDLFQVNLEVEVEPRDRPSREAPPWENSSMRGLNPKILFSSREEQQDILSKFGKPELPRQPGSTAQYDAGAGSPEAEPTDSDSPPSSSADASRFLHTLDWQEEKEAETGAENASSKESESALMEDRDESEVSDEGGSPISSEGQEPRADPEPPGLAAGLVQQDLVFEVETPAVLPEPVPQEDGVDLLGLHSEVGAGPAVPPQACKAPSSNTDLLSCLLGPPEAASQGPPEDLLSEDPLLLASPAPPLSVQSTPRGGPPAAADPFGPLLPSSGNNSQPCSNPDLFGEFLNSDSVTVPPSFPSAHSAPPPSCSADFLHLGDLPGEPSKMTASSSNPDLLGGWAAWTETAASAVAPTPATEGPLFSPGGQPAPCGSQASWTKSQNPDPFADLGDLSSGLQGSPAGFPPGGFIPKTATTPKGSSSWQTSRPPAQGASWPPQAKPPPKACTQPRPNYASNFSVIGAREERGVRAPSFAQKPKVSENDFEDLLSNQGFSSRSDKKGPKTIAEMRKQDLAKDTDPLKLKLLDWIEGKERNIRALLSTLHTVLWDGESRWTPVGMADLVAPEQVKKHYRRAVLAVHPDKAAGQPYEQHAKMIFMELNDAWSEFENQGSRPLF

[2] = biological target: T1, Cyclin-G-associated kinase; assay: Inhibition of GAK (unknown origin) by in-cell pulse based assay
[3] = biological target: Interleukin-1 receptor-associated kinase 3 (Homo sapiens, UniProt Q9Y616); assay: Binding affinity to human wild type partial length IRAK3 (V147 to E596 residues) expressed in bacterial expression system by Kinomescan method
[4] = biological target: RAF proto-oncogene serine/threonine-protein kinase (Homo sapiens) (UniProt P04049); assay: Inhibition of human wild type partial length C-Raf (I330 to T640 residues) expressed in bacterial expression system at 1 uM by Kinomescan method relative to control
Ephrin type-B receptor 6 = biological target: T2, Ephrin type-B receptor 6 (Homo sapiens, UniProt O15197); assay: Binding affinity to human wild type partial length EphB6 (Q634 to P948 residues) expressed in mammalian expression system by Kinomescan method
T2 sequence (O15197 whole entry): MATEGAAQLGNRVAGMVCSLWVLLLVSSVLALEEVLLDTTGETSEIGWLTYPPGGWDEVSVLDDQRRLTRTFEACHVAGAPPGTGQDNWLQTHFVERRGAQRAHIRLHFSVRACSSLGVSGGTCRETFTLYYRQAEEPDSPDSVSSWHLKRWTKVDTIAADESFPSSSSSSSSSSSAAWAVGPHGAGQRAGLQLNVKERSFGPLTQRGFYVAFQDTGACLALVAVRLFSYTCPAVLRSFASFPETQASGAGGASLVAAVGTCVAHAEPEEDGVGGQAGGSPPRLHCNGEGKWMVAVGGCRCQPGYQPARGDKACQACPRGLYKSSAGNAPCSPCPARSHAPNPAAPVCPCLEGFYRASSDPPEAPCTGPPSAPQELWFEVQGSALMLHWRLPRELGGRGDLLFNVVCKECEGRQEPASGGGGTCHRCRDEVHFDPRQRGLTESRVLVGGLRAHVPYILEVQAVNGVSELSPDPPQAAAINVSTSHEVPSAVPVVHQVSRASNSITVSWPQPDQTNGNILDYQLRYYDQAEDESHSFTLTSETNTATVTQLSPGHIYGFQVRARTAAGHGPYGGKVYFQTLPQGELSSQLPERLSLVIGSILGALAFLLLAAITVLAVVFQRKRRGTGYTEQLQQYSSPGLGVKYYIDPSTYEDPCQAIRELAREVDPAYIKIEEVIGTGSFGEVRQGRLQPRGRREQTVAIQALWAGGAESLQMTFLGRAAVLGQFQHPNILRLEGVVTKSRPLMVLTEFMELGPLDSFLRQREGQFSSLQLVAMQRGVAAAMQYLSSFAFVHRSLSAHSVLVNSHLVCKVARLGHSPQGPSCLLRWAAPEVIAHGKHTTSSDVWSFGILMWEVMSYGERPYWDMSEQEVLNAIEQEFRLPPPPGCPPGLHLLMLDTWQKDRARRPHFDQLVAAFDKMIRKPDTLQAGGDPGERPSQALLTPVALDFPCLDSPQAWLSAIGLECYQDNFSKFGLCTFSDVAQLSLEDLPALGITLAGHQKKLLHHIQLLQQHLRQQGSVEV

Ephrin type-A receptor 1 = Ephrin type-A receptor 1 (Homo sapiens, UniProt P21709); assay: Binding affinity to human wild type partial length EphA1 (V588 to I913 residues) expressed in bacterial expression system by Kinomescan method
Sequence of Ephrin type-A receptor 1 (P21709 whole entry, the tested form may be a part): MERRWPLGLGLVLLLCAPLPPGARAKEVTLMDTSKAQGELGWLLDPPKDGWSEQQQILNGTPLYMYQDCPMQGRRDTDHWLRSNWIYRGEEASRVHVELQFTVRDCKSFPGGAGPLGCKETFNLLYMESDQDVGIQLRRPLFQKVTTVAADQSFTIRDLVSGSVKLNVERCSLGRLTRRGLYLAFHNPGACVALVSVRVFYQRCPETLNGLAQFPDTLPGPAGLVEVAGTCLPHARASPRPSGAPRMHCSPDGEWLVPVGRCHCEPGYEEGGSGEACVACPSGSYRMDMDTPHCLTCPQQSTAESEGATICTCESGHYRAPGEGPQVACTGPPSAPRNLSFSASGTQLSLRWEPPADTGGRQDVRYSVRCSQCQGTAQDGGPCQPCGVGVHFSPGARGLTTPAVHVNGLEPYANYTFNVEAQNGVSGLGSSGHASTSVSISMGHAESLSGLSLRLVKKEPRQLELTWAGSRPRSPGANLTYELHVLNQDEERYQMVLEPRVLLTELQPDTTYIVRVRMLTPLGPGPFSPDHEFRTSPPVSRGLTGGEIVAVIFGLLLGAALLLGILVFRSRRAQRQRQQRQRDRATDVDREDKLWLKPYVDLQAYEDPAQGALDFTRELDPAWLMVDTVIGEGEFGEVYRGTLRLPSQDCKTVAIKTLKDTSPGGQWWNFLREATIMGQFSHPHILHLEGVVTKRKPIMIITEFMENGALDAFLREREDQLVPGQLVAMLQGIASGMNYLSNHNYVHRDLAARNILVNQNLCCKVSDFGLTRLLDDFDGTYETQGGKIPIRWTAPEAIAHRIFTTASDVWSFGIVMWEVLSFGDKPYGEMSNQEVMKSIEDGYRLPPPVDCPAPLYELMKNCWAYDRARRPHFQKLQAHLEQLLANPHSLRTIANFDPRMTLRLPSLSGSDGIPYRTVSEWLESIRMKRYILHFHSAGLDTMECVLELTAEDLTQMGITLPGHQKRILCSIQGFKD

[5] = biological target: Serine/threonine-protein kinase NLK (Homo sapiens, UniProt Q9UBE8); assay: Binding affinity to wild-type human full length NLK expressed in bacterial expression system by Kinomescan method
[6] = biological target: T3, Tyrosine-protein kinase ABL1 (Homo sapiens, UniProt P00519); assay: Binding affinity to human wild type partial length non-phosphorylated ABL1 (S229 to K512 residues) expressed in mammalian expression system by Kinomescan method
T3 sequence (P00519 whole entry, the tested form may be a part): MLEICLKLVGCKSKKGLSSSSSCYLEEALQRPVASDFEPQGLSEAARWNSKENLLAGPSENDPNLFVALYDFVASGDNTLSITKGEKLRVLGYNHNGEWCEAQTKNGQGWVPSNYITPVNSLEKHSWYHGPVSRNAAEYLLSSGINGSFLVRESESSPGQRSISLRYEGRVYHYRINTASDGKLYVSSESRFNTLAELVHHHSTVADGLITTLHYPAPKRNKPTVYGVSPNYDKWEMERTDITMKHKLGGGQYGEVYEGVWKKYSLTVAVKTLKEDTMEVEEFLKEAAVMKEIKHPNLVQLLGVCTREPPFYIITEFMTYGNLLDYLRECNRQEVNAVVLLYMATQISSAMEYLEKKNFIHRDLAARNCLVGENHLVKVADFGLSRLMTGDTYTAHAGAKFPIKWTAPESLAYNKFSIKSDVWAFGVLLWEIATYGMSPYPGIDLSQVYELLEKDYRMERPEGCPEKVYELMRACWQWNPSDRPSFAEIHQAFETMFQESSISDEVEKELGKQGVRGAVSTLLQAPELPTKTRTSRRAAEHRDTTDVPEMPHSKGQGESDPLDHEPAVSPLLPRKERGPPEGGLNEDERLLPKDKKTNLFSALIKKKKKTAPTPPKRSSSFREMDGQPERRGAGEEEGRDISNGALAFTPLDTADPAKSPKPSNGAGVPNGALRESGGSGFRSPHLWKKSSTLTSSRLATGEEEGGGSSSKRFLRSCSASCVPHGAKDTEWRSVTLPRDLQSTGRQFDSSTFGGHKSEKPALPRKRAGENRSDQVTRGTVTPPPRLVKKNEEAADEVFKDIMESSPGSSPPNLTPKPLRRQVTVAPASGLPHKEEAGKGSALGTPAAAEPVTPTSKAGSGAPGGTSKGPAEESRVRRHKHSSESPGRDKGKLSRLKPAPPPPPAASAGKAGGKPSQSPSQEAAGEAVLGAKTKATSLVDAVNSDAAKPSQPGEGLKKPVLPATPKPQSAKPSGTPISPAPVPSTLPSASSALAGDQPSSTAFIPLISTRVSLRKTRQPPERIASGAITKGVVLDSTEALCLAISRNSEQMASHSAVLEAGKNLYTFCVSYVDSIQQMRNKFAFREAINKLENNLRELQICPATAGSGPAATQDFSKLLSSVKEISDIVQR

[7] = biological target: Tyrosine-protein kinase Lck (Homo sapiens, UniProt P06239); assay: Binding affinity to wild-type human partial length LCK (R207 to P509 residues) expressed in bacterial expression system by Kinomescan method
Sequence of Tyrosine-protein kinase Lck (P06239 whole entry, the tested form may be a part): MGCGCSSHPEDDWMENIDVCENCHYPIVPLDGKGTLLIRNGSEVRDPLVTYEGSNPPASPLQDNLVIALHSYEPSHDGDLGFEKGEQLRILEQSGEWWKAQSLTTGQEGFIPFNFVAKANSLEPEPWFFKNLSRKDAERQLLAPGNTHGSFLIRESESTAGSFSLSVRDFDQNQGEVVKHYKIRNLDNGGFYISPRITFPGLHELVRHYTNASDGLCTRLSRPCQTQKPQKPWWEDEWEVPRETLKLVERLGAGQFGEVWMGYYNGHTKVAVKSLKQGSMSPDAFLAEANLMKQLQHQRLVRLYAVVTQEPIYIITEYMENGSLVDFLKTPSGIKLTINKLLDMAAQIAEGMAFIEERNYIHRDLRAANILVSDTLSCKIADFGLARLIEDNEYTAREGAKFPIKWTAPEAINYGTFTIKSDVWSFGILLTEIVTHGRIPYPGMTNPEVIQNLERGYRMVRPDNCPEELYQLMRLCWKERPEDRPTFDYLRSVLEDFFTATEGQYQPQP

[8] = biological target: Tyrosine-protein kinase TXK (Homo sapiens, UniProt P42681); assay: Binding affinity to wild-type human partial length TXK (L238 to W527 residues) expressed in bacterial expression system by Kinomescan method
Ephrin type-A receptor 8 = Ephrin type-A receptor 8 (Homo sapiens, UniProt P29322); assay: Binding affinity to human wild type partial length EphA8 (Q608 to C920 residues) expressed in bacterial expression system by Kinomescan method
Sequence of Ephrin type-A receptor 8 (P29322 whole entry, the tested form may be a part): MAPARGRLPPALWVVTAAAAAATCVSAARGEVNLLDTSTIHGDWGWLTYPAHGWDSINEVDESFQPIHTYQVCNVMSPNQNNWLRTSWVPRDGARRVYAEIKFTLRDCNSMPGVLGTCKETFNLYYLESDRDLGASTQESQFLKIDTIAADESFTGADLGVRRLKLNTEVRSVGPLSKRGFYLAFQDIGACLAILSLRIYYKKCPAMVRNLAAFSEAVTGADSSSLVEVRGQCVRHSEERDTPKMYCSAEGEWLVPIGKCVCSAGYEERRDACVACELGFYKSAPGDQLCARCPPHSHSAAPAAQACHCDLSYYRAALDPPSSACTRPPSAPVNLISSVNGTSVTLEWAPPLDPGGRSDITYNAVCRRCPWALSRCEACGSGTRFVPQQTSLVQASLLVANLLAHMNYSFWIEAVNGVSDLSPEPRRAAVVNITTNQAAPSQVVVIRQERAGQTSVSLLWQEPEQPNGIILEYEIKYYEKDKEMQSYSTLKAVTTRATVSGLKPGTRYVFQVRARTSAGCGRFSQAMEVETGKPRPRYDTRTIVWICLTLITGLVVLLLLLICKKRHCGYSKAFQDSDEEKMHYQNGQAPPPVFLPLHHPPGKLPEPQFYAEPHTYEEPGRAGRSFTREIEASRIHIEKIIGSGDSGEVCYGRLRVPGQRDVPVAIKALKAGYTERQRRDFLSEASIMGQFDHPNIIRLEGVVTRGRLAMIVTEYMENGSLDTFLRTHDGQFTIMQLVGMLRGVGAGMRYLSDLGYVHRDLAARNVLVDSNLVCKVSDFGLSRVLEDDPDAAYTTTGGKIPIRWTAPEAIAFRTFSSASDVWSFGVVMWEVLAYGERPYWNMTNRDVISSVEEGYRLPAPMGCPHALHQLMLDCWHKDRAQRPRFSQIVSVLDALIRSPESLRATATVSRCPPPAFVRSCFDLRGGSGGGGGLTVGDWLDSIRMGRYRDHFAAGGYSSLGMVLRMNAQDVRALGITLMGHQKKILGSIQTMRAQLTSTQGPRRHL

Activin receptor type-1 = Activin receptor type-1 (Homo sapiens, UniProt Q04771); assay: Binding affinity to human wild type partial length ACVR1 (C188 to C509 residues) expressed in bacterial expression system by Kinomescan method
Sequence of Activin receptor type-1 (Q04771 whole entry, the tested form may be a part): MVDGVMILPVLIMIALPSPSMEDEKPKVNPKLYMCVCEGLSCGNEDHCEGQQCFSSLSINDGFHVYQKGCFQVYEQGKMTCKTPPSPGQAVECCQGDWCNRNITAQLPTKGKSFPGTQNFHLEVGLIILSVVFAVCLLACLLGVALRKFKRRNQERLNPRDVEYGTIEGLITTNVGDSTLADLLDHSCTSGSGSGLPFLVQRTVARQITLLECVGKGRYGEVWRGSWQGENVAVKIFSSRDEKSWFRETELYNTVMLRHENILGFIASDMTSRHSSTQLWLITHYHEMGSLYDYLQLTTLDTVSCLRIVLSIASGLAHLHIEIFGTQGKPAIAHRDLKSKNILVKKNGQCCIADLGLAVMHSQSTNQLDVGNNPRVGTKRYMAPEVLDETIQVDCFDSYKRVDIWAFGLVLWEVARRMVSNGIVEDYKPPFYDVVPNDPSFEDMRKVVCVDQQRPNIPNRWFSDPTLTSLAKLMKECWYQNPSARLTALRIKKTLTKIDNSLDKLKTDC

[9] = biological target: Receptor-interacting serine/threonine-protein kinase 2 (Homo sapiens, UniProt O43353); assay: Binding affinity to wild-type human partial length RIPK2 (M1 to K310 residues) expressed in bacterial expression system by Kinomescan method
[10] = biological target: Bone morphogenetic protein receptor type-1B (Homo sapiens, UniProt O00238); assay: Binding affinity to human wild type partial length BMPR1B (D178 to L502 residues) expressed in mammalian expression system by Kinomescan method
Sequence of Bone morphogenetic protein receptor type-1B (O00238 whole entry, the tested form may be a part): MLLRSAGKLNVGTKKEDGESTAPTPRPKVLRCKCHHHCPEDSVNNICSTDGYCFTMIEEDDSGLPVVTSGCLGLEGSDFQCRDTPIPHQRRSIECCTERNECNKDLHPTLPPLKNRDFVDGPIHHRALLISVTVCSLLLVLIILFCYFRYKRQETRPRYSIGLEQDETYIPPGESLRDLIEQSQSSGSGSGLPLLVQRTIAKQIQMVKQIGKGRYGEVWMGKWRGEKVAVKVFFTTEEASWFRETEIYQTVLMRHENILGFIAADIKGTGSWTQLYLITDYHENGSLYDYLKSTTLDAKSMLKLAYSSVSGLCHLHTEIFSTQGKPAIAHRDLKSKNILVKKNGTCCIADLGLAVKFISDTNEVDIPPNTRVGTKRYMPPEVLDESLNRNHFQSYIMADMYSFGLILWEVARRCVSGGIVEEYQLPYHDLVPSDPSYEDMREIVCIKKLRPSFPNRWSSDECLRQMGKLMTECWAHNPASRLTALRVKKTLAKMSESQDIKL

[11] = biological target: T3, Tyrosine-protein kinase ABL1; assay: Binding affinity to human wild type partial length phosphorylated ABL1 (S229 to K512 residues) expressed in mammalian expression system by Kinomescan method
[12] = biological target: Dual specificity mitogen-activated protein kinase kinase 5 (Homo sapiens, UniProt Q13163); assay: Binding affinity to human wild type partial length MEK5 (L98 to P448 residues) expressed in mammalian expression system by Kinomescan method
[13] = biological target: Atypical kinase COQ8A, mitochondrial (Homo sapiens, UniProt Q8NI60); assay: Binding affinity to human wild type full-length ADCK3 expressed in bacterial expression system by Kinomescan method

SMILES: COc1cc(Nc2ccnc3ccccc23)cc(OC)c1OC
- Kd [1]: 170 nM

SMILES: COc1cc(N(C)c2ccnc3ccc(C(F)(F)F)cc23)cc(OC)c1OC
- IC50 [2]: > 10000 nM
- Kd [3]: 480 nM
- Kd [1]: 9900 nM

SMILES: COc1ccc2c(Nc3cc(OC)c(OC)c(OC)c3)ccnc2c1
- Kd [1]: 35 nM
- inhibition [4]: 20%

SMILES: COc1cc(Nc2ccnc3ccc(C(F)(F)F)cc23)cc(OC)c1OC
- Kd (Ephrin type-B receptor 6): 1600 nM
- Kd (Ephrin type-A receptor 1): 3100 nM
- Kd [5]: 690 nM
- Kd [6]: 1900 nM
- Kd [7]: 1100 nM
- Kd [8]: 1400 nM
- Kd (Ephrin type-A receptor 8): 1100 nM

SMILES: COc1cc2nccc(Nc3cc(OC)c(OC)c(OC)c3)c2cc1OC
- Kd (Activin receptor type-1): 1300 nM
- Kd (Ephrin type-B receptor 6): 130 nM
- Kd [9]: 190 nM
- Kd [10]: 280 nM
- Kd (Ephrin type-A receptor 1): 1300 nM
- Kd [11]: 92 nM
- Kd [6]: 170 nM
- Kd [7]: 350 nM
- Kd [12]: 430 nM
- Kd (Ephrin type-A receptor 8): 560 nM
- Kd [1]: 11 nM

SMILES: COc1cc(Nc2ncnc3ccc(C(F)(F)F)cc23)cc(OC)c1OC
- Kd [1]: 130 nM

SMILES: COc1cc(Nc2cc(C)nc3ccc(C(F)(F)F)cc23)cc(OC)c1OC
- IC50 [2]: > 10000 nM
- Kd [1]: > 30000 nM

Other lines, results leading:

- Kd [1]: 8.6 nM
SMILES: COc1cc(Nc2ccnc3ccc(I)cc23)cc(OC)c1OC

- Kd [1]: 34 nM
SMILES: COc1cc(Nc2ccnc3ccc(C(C)(C)C)cc23)cc(OC)c1OC

- Kd [1]: 48 nM
SMILES: COc1ccc2nccc(Nc3cc(OC)c(OC)c(OC)c3)c2c1

- Kd (Activin receptor type-1): 1000 nM
- Kd (Ephrin type-B receptor 6): 710 nM
- Kd [6]: 1200 nM
- Kd [13]: 260 nM
SMILES: COc1cc(Nc2ccnc3ccc(Br)cc23)cc(OC)c1OC

- Kd [1]: 4.9 nM
SMILES: COc1cc(Nc2ccnc3ccc(C#N)cc23)cc(OC)c1OC

- Kd [1]: 6.3 nM
SMILES: COc1cc(Nc2ccnc3ccc(Cl)cc23)cc(OC)c1OC
